Measured values reported in patent US20260191968A1, “PROTAC DEGRADERS OF MLLT1 AND/OR MLLT3” (DARK BLUE THERAPEUTICS LTD, priority 2024, published 2026).

Biological target: T1, MLLT1 (Homo sapiens, UniProt Q03111)
T1 construct: host or cells: MV4-11
T1 sequence (Q03111 1-559): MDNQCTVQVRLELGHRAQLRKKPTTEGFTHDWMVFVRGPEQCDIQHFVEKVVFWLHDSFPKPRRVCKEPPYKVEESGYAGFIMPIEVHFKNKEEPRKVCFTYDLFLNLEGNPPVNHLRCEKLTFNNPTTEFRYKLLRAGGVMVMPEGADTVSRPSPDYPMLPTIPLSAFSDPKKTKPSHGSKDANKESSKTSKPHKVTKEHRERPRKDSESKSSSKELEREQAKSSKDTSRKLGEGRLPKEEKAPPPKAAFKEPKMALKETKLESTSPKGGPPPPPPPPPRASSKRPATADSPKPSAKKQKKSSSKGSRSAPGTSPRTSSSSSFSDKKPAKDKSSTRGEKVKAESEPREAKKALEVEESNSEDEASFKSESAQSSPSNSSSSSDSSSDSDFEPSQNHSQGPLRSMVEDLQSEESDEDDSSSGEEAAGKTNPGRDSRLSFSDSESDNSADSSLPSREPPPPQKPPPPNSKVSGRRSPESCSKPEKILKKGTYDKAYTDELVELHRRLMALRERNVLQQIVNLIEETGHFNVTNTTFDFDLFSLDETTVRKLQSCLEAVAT
Assay: MLLT1 degradation assay in MV4-11 cells (JESS chemiluminescent detection), three concentrations, 24 h
Format: cell-based
Details: with respect to DMSO control
Method: MLLT1 degradation efficacy of compounds were tested in an automated chemiluminescent detection system (JESS, Cat #004-650). […] 10 mM DMSO stocks were prepared, and cells were treated with three concentrations of test compounds viz. 1000, 100 and 10 nM at a final DMSO concentration of 0.1% and incubated for 24 h at 37° C., 5% CO2. […] Post run, data were analysed using “Compass for SW” software for chemiluminescent detection. The peak area for each band was used for the calculation of MLLT1 degradation with respect to DMSO control. Data is shown as “MLLT1% degradation”.

Compound | MLLT1% Degradation @ 0.01 μM | MLLT1% Degradation @ 0.1 μM | MLLT1% Degradation @ 1 μM
CN1CCC[C@@H]1c1cc2cnc(NC(=O)c3cccc(OCCCCCCCC#Cc4cccc5c4C(=O)N(C4CCC(=O)NC4=O)C5=O)c3)cc2[nH]1 (stereo partly drawn) [Example 26, 3-((9-(2-(2,6-dioxopiperidin-3-yl)-1,3-dioxoisoindolin-4-yl)non-8-yn-1-yl)oxy)-N-(2-((R)-1-methylpyrrolidin-2-yl)-1H-pyrrolo[3,2-c]pyridin-6-yl)benzamide] | D (Category D: D < 25% degradation) | D (Category D: D < 25% degradation) | C (Category C: 25% ≤ C < 50% degradation)
CN1CCC[C@@H]1c1cc2cnc(NC(=O)CCCCCCNc3ccc4c(c3)C(=O)N(C3CCC(=O)NC3=O)C4=O)cc2[nH]1 (stereo partly drawn) [Example 27, 7-{[2-(2,6-dioxopiperidin-3-yl)-1,3-dioxoisoindol-5-yl]amino}-N-{2-[(2R)-1-methylpyrrolidin-2-yl]-1H-pyrrolo[3,2-c]pyridin-6-yl}heptanamide] | C (Category C: 25% ≤ C < 50% degradation) | C (Category C: 25% ≤ C < 50% degradation) | B (Category B: 50% ≤ B < 75% degradation)
CN1CCC[C@@H]1c1cc2cnc(NC(=O)CCCCCCCCNc3cccc4c3C(=O)N(C3CCC(=O)NC3=O)C4=O)cc2[nH]1 (stereo partly drawn) [Example 30, 9-{[2-(2,6-dioxopiperidin-3-yl)-1,3-dioxoisoindol-4-yl]amino}-N-{2-[(2R)-1-methylpyrrolidin-2-yl]-1H-pyrrolo[3,2-c]pyridin-6-yl}nonanamide] | C (Category C: 25% ≤ C < 50% degradation) | B (Category B: 50% ≤ B < 75% degradation) | A (Category A: A ≥ 75% degradation)
CN1CCC[C@@H]1c1cc2cnc(NC(=O)c3cnn(CCCC4CCN(c5cccc6c5C(=O)N(C5CCC(=O)NC5=O)C6=O)CC4)c3)cc2[nH]1 (stereo partly drawn) [Example 38, 1-(3-{1-[2-(2,6-dioxopiperidin-3-yl)-1,3-dioxoisoindol-4-yl]piperidin-4-yl}propyl)-N-{2-[(2R)-1-methylpyrrolidin-2-yl]-1H-pyrrolo[3,2-c]pyridin-6-yl}pyrazole-4-carboxamide] | D (Category D: D < 25% degradation) | D (Category D: D < 25% degradation) | C (Category C: 25% ≤ C < 50% degradation)
CN1CCC[C@@H]1c1cc2cnc(NC(=O)CCCC3CCCN(c4cccc5c4C(=O)N(C4CCC(=O)NC4=O)C5=O)C3)cc2[nH]1 (stereo partly drawn) [Example 44, 4-(1-(2-(2,6-dioxopiperidin-3-yl)-1,3-dioxoisoindolin-4-yl)piperidin-3-yl)-N-(2-((R)-1-methylpyrrolidin-2-yl)-1H-pyrrolo[3,2-c]pyridin-6-yl)butanamide] |  | C (Category C: 25% ≤ C < 50% degradation) | C (Category C: 25% ≤ C < 50% degradation)
CN1CCC[C@@H]1c1cc2cnc(NC(=O)c3cccc(NCC4CCN(c5cccc6c5C(=O)N(C5CCC(=O)NC5=O)C6=O)CC4)c3)cc2[nH]1 (stereo partly drawn) [Example 46, 3-(((1-(2-(2,6-dioxopiperidin-3-yl)-1,3-dioxoisoindolin-4-yl)piperidin-4-yl)methyl)amino)-N-(2-((R)-1-methylpyrrolidin-2-yl)-1H-pyrrolo[3,2-c]pyridin-6-yl)benzamide] |  | B (Category B: 50% ≤ B < 75% degradation) | B (Category B: 50% ≤ B < 75% degradation)
CN1CCC[C@@H]1c1cc2cnc(NC(=O)c3ccc(CCC#Cc4cccc5c4CN(C4CCC(=O)NC4=O)C5=O)cn3)cc2[nH]1 (stereo partly drawn) [Example 49, 5-(4-(2-(2,6-dioxopiperidin-3-yl)-1-oxoisoindolin-4-yl)but-3-yn-1-yl)-N-(2-((R)-1-methylpyrrolidin-2-yl)-1H-pyrrolo[3,2-c]pyridin-6-yl)picolinamide] | D (Category D: D < 25% degradation) | D (Category D: D < 25% degradation) | C (Category C: 25% ≤ C < 50% degradation)
CN1CCCC1c1cc2cnc(NC(=O)c3ccc(OCC#Cc4cccc5c4CN(C4CCC(=O)NC4=O)C5=O)cn3)cc2[nH]1 (stereo not shown) [Example 50, 5-[3-[2-(2,6-dioxo-3-piperidyl)-1-oxo-isoindolin-4-yl]prop-2-ynoxy]-N-[2-(1-methylpyrrolidin-2-yl)-1H-pyrrolo[3,2-c]pyridin-6-yl]pyridine-2-carboxamide] | B (Category B: 50% ≤ B < 75% degradation) | B (Category B: 50% ≤ B < 75% degradation) | B (Category B: 50% ≤ B < 75% degradation)
CN1CCC[C@@H]1c1cc2cnc(NC(=O)c3ccc(-c4cnn(CCCC#Cc5cccc(C(=O)N[C@H]6CCC(=O)NC6=O)n5)c4)cc3)cc2[nH]1 [Example 62, N—((S)-2,6-dioxopiperidin-3-yl)-6-(5-(4-(4-((2-((R)-1-methylpyrrolidin-2-yl)-1H-pyrrolo[3,2-c]pyridin-6-yl)carbamoyl)phenyl)-1H-pyrazol-1-yl)pent-1-yn-1-yl) picolinamide] | B (Category B: 50% ≤ B < 75% degradation) | A (Category A: A ≥ 75% degradation) | B (Category B: 50% ≤ B < 75% degradation)
CN1CCC[C@@H]1c1cc2cnc(NC(=O)c3ccc(CCCC#Cc4cccc(N5CCC(=O)NC5=O)n4)cc3)cc2[nH]1 [Example 63, (R)-4-(5-(6-(2,4-dioxotetrahydropyrimidin-1(2H)-yl)pyridin-2-yl)pent-4-yn-1-yl)-N-(2-(1-methylpyrrolidin-2-yl)-1H-pyrrolo[3,2-c]pyridin-6-yl)benzamide] | D (Category D: D < 25% degradation) | D (Category D: D < 25% degradation) | C (Category C: 25% ≤ C < 50% degradation)
CN1CCC[C@@H]1c1cc2cnc(NC(=O)c3ccc(N4CCC(N5CCN(c6cccc7c6C(=O)N(C6CCC(=O)NC6=O)C7=O)CC5)CC4)nc3)cc2[nH]1 (stereo partly drawn) [Example 64, 6-(4-(4-(2-(2,6-dioxopiperidin-3-yl)-1,3-dioxoisoindolin-4-yl)piperazin-1-yl)piperidin-1-yl)-N-(2-((R)-1-methylpyrrolidin-2-yl)-1H-pyrrolo[3,2-c]pyridin-6-yl)nicotinamide] | B (Category B: 50% ≤ B < 75% degradation) | B (Category B: 50% ≤ B < 75% degradation) | A (Category A: A ≥ 75% degradation)
Cc1ncsc1-c1ccc(CNC(=O)[C@@H]2C[C@@H](O)CN2C(=O)[C@@H](NC(=O)CCCCCCCCCCNC(=O)c2ccc(C(=O)Nc3cc4[nH]c([C@H]5CCCN5C)cc4cn3)cc2)C(C)(C)C)cc1 [Example 69, (2S,4R)-1-[(2S)-3,3-dimethyl-2-(11-{[4-({2-[(2R)-1-methylpyrrolidin-2-yl]-1H-pyrrolo[3,2-c]pyridin-6-yl}carbamoyl)phenyl]formamido}undecanamido)butanoyl]-4-hydroxy-N-{[4-(4-methyl-1,3-thiazol-5-yl)phenyl]methyl}pyrrolidine-2-carboxamide] | C (Category C: 25% ≤ C < 50% degradation) | C (Category C: 25% ≤ C < 50% degradation) | C (Category C: 25% ≤ C < 50% degradation)
